Assay results reported in paper PMC8226474, “Design, Syntheses, and Bioevaluations of Some Novel N^2-Acryloylbenzohydrazides as Chemostimulants and Cytotoxic Agents” (Medicines, 2021).

What was measured:
[1] = Cytotoxicity (CC50), average over non-malignant cells; format: cell-based; settings: human, Hs27 and MCF10A cells (non-malignant), average of both
Procedure: (§1) In brief, the compounds were incubated for 24 h with the neoplasms, using DMEM and RPMI media. Three independent experiments were carried out.

[2] = system: NALM-60 cells; experiment: Cytotoxicity (CC50), NALM-60 cells; format: cell-based, human; settings: for CC50: Homo sapiens, 24 h incubation; for SI NALM-60: average CC50 of non-malignant cells / CC50 NALM-60
Procedure: as §1

[3] = system: RAJI cells; experiment: Cytotoxicity (CC50), Raji cells; format: cell-based, human; settings: for CC50: Homo sapiens, Raji, 24 h incubation; for SI RAJI: average CC50 of non-malignant cells / CC50 RAJI
Procedure: as §1

[4] = system: MCF-7 cells; experiment: Cytotoxicity assay, MCF-7 breast cancer cells; format: cell-based, human; settings: for inhibition at 10 µM / inhibition at 100 µM: read-out: percentage inhibition of MCF-7 cells
From the text: (§2) Evaluation of the cytotoxic properties of the compounds presented in Table 1, Table 2, Table 3 and Table 4 was undertaken using the procedure outlined in [7]. In brief, the HCT 116 cells were obtained from the ATCC and cultured in McCoy’s 5A medium. The CRL 1790 cells were obtained from the ATCC and cultured in Minimum Essential Medium. The MCF-7 and MDA-MBA-231 cells were obtained from the Saskatchewan Cancer Agency and cultured in DMEM. In each assay the culture medium was supplemented with 10% fetal bovine serum and 1% penicillin–streptomycin antibiotics. The time of the bioassays was 48 h, unless indicated otherwise. All determinations were carried out in triplicate on three different occasions.

[5] = system: Ramos, NALM-60, CEM, HL-60, JURKAT, RAJI cells; experiment: Cytotoxicity (CC50), average over six leukemia/lymphoma cell lines; format: cell-based, human; settings: for CC50: Homo sapiens, average over six neoplastic cell lines
Procedure: as §1

[6] = system: HL-60 cells; experiment: Cytotoxicity (CC50), HL-60 cells; format: cell-based, human; settings: for CC50: Homo sapiens, HL-60, 24 h incubation; for SI HL-60: average CC50 of non-malignant cells / CC50 HL-60
Procedure: as §1

[7] = system: Ramos cells; experiment: Cytotoxicity (CC50), Ramos cells; format: cell-based, human; settings: for CC50: Homo sapiens, Ramos, 24 h incubation; for SI Ramos: average CC50 of non-malignant cells / CC50 Ramos
Procedure: as §1

[8] = Cytotoxicity (CC50), non-malignant MCF-10A breast cells; format: cell-based; settings: human, MCF-10A cells (non-malignant breast cells); 24 h incubation; read-out: Non-Malignant Cells CC50, MCF10A
Procedure: as §1

[9] = system: CEM cells; experiment: Cytotoxicity (CC50), CEM cells; format: cell-based, human; settings: for CC50: Homo sapiens, CCRF-CEM, 24 h incubation; for SI CEM: average CC50 of non-malignant cells / CC50 CEM
Procedure: as §1

[10] = system: MDA-MB-231 cells; experiment: Cytotoxicity assay, MDA-MB-231 breast cancer cells; format: cell-based, human; settings: Homo sapiens, MDA-MB-231, 48 h, read-out: percentage inhibition of MDA-MB-231 cells
From the text: as §2

[11] = Cytotoxicity (CC50), non-malignant Hs27 foreskin cells; format: cell-based; settings: human, 24 h incubation
Procedure: as §1

[12] = system: JURKAT cells; experiment: Cytotoxicity (CC50), Jurkat cells; format: cell-based, human; settings: for CC50: Homo sapiens, Jurkat, 24 h incubation; for SI JURKAT: average CC50 of non-malignant cells / CC50 JURKAT
Procedure: as §1

[13] = system: CRL 1790 cells; experiment: Cytotoxicity assay, non-malignant CRL 1790 colon cells; format: cell-based; settings: Homo sapiens, 48 h, Table 2, read-out: Non-Malignant CRL 1790 Cells IC50
From the text: as §2

[14] = system: HCT 116 cells; experiment: Cytotoxicity assay, HCT 116 colon cancer cells; format: cell-based, human; settings: for inhibition at 10 µM / inhibition at 100 µM: read-out: percentage inhibition of HCT 116 cells
From the text: as §2

[15] = system: Ramos cells; experiment: Mitochondrial membrane potential of Ramos cells (JC-1 dye, flow cytometry); format: cell-based, human; settings: 5 h, Figure 3
Procedure: The effect of 1l on the mitochondrial membrane potential of Ramos cells was determined using the procedure laid out in [9]. In brief, the cells were treated with 1l for 5 h, stained with the JC-1 dye, and then the results were analyzed by flow cytometry.
The MMP of Ramos cells was determined using the JC-1 dye. In this assay, JC-1 enters the energized mitochondria in healthy cells and forms aggregates to produce red fluorescence at 590 nm. However, cells undergoing apoptotic cell death have a low mitochondrial membrane potential.

SMILES	CC50 at 24 h [1]	CC50 [2]	SI NALM-60 [2]	CC50 [3]	SI RAJI [3]	inhibition at 10 µM ([4]; Homo sapiens, MCF7, 48 h)	inhibition at 100 µM ([4]; Homo sapiens, MCF7, 48 h)	Avg SI, neoplastic cells [5]	CC50 [5]	CC50 [6]	SI HL-60 [6]	CC50 [7]	SI Ramos [7]	CC50 at 24 h [8]	CC50 [9]	SI CEM [9]	inhibition at 10 µM [10]	inhibition at 100 µM [10]	CC50 at 24 h [11]	CC50 [12]	further results
C=CC(=O)NNC(=O)c1ccccc1 [1a, N^2-Acryloylbenzohydrazide]	12.9 µM	2.74 ± 0.59 µM	4.71	5.18 ± 0.35 µM	2.49	5.47 ± 3.52%	51.1 ± 2.87%	16.1	2.64 µM	3.32 ± 0.26 µM	3.89	0.19 ± 0.01 µM	67.9	13.7 ± 1.1 µM	0.91 ± 0.48 µM	14.2	-12.2 ± 1.5%	52.1 ± 2.04%	12.1 ± 0.91 µM	3.52 ± 0.36 µM	melting point: 177 to 179 °C; SI JURKAT [12]: 3.65; IC50 [13]: > 100 µM; inhibition at 10 µM ([14]; Homo sapiens, HCT-116, 48 h): 10.6 ± 1.7%; inhibition at 100 µM ([14]; Homo sapiens, HCT-116, 48 h): 94.1 ± 1.44%; IC50 ([14]; Homo sapiens, HCT-116, Table 2, 48 h, read-out: Neoplastic Cells IC50, HCT 116): 36.9 ± 2.84 µM; SI (selectivity index) ([14]; IC50 CRL 1790 / IC50 HCT 116, Table 2): >2.70
C=CC(=O)NNC(=O)c1ccc(Cl)cc1 [1d, N^2-Acryloyl-4-chlorobenzohydrazide]	8.69 µM	2.86 ± 0.55 µM	3.04	2.71 ± 0.09 µM	3.24	3.59 ± 2.08%	55.9 ± 2.82%	14.2	1.76 µM	2.9 ± 0.76 µM	3.00	0.15 ± 0.02 µM	57.9	6.87 ± 0.48 µM	0.86 ± 0.07 µM	10.1	-12.3 ± 4.05%	49.1 ± 2.04%	10.5 ± 0.05 µM	1.07 ± 0.09 µM	melting point: 233 to 235 °C; SI JURKAT [12]: 8.12; inhibition at 10 µM ([14]; Homo sapiens, HCT-116, 48 h): -5.05 ± 2.36%; inhibition at 100 µM ([14]; Homo sapiens, HCT-116, 48 h): 82.3 ± 0.8%
C=CC(=O)NNC(=O)c1cc(Cl)ccc1Cl [1h, N^2-Acryloyl-2,5-dichlorobenzohydrazide]	13.7 µM	3.34 ± 0.43 µM	4.10	5.5 ± 1.1 µM	2.49	14.7 ± 3.68%	54.2 ± 3.42%	11.0	3.44 µM	5.62 ± 0.29 µM	2.44	0.29 ± 0.05 µM	47.2	12.9 ± 0.95 µM	3.37 ± 0.18 µM	4.07	-5.95 ± 4.21%	122 ± 2.9%	14.4 ± 0.24 µM	2.5 ± 0.24 µM	melting point: 207 to 210 °C; SI JURKAT [12]: 5.48; inhibition at 10 µM ([14]; Homo sapiens, HCT-116, 48 h): 7.12 ± 1.51%; inhibition at 100 µM ([14]; Homo sapiens, HCT-116, 48 h): 87.7 ± 1.62%
C=CC(=O)NNC(=O)c1ccc(OC)cc1 [1l, N^2-Acryloyl-4-methoxylbenzohydrazide]	17.9 µM	3.25 ± 0.99 µM	5.51	2.93 ± 0.43 µM	6.11	60.6 ± 3.29%	99.4 ± 2.34%	22.7	1.97 µM	1.86 ± 0.66 µM	9.62	0.19 ± 0.01 µM	94.2	18.1 ± 0.84 µM	1.42 ± 0.25 µM	12.6	-4.95 ± 3.12%	47.7 ± 3.19%	17.7 ± 0.62 µM	2.17 ± 0.45 µM	IC50 ([4]; Homo sapiens, MCF7, Table 2, 48 h, read-out: Neoplastic Cells IC50, MCF-7): 3.18 ± 0.53 µM; SI (selectivity index) ([4]; IC50 CRL 1790 / IC50 MCF-7, Table 2): >31.5; effect on mitochondrial membrane potential of Ramos cells ([15]; CC50 concentration of 1l, vs control): significantly depolarized; effect on mitochondrial membrane potential of Ramos cells ([15]; doubled (2 x CC50) concentration of 1l): approximately twofold increase in the mitochondrial depolarization; SI JURKAT [12]: 8.25; IC50 [13]: > 100 µM; inhibition at 10 µM ([14]; Homo sapiens, HCT-116, 48 h): 8.62 ± 2.79%; inhibition at 100 µM ([14]; Homo sapiens, HCT-116, 48 h): 85.1 ± 3.28%
